Experimental findings from ChEMBL document CHEMBL4613222 (Bioorg Med Chem, 2020) are described below.

Assay [1] has as its system HCT-116. Nature of the assay: Antiproliferative activity against human HCT116 cells assessed as reduction in cell viability after 48 hrs by MTT assay. The settings on record: HCT-116, 48 h. It is filed as functional, cell-based.
For assay [2], the system named is HCT-116. Kind of assay: Radiosensitizer activity in human HCT116 cells assessed as reduction in cell survival at 4.75 uM incubated for 48 hrs under 2 to 6 Gy irradiation and measured after 7 days by crystal violet staining based by clonogenic assay. The format is functional.
Assay [3] concerns HCT-116. Nature of the assay: Down regulation of NFKappaB1 gene expression in human HCT116 cells at 9.5 uM by RT-PCR analysis relative to control. It is filed as functional.
Assay [4] relates to HCT-116. Nature of the assay: Down regulation of NFKappaB1 gene expression in human HCT116 cells at 35 uM under 2 Gy irradiation by RT-PCR analysis. It is filed as functional, cell-based.
The subject of assay [5] is HCT-116. Kind of assay: Effect on CCND1 gene expression in human HCT116 cells at 9.5 uM in presence of 2 Gy irradiation by RT-PCR analysis. The format is functional, cell-based.
For assay [6], the system named is HCT-116. Nature of the assay: Down regulation of CCND1 gene expression in human HCT116 cells at 9.5 uM in presence of 2 Gy irradiation by RT-PCR analysis. The format is functional, cell-based.

Calls of active or inactive are those of the source. The rule behind the calls is not given here.

`C[C@H]1[C@H](C)CC[C@]2(C(=O)O)CC[C@]3(C)C(=CC[C@@H]4[C@@]5(C)CC[C@H](O)C(C)(C)[C@@H]5CC[C@]43C)[C@H]12` [URSOLIC ACID]: the IC50 with HCT-116 [1] came to 19 µM. Also, the result in the assay on HCT-116 [2], with HCT-116 [4] and with HCT-116 [6] was Active. In addition, the “fold change (FC)” value in the assay with HCT-116 [3] was -7.05. Moreover, the result in the assay on HCT-116 [5] was inactive.
